Reference: patent US11793782B2, “Therapeutic agents for neurodegenerative diseases” (priority 2017, dated 2023)

Experiments:
[1] = system: Mucolipidosis Type IIIA (MLIIIA) patient fibroblasts; assay: Lysosomal volume via LysoTracker, MLIIIA fibroblasts; format: cell-based, human; settings: 1 mM, 6 days
[2] = system: patients with cerebellar ataxia; settings: cited from earlier work
[3] = system: Mucolipidosis Type II (MLII) patient fibroblasts; assay: Lysosomal volume via LysoTracker, MLII fibroblasts; format: cell-based, human; settings: 1 mM, 6 days
[4] = system: progressive supranuclear palsy patients; assay: Case studies, progressive supranuclear palsy patients; format: in vivo, human; settings: for Clinical observation: 5 g per day; for Symptoms after stopping medication: about two months later
Experimental: After 27 days of acetyl-leucine treatment, medication was stopped and the patient was re-examined 60 days later. […] Gait analysis was performed before treatment commenced. […] Gait analysis was performed before treatment commenced. After 17 days of treatment, medication was stopped and the patient was re-examined 4 days later. […] Gait analysis was performed before treatment commenced. After three weeks of treatment, medication was stopped and the patient was re-examined.

[5] = system: Mucopolysaccharidosis Type IIIB (MPS IIIB) patient fibroblasts; assay: Lysosomal volume via LysoTracker, MPS IIIB fibroblasts; format: cell-based, human; settings: 1 mM, 6 days
[6] = system: Aspartylglucosaminuria patient fibroblasts; assay: Lysosomal volume via LysoTracker, Aspartylglucosaminuria fibroblasts; format: cell-based, human; settings: 1 mM, 6 days
[7] = system: Hexb−/− mouse (Sandhoff disease model); assay: Bar crossing test, Sandhoff mouse; format: in vivo; settings: 0.1 g/kg body weight from 3 weeks of age
Source text: The bar crossing test is a method for assessing motor function in mice in which the mouse is placed hanging from the centre of a horizontal bar by its front limbs. A wild-type mouse with normal motor function will be able to engage its hind limbs and thereby move to one of the platforms at either end of the bar, and in doing so complete the test. An untreated Sandhoff mouse is able to complete the test up until around 11 weeks of age. After this point motor function and hind-limb mobility/engagement have deteriorated to the point to which the mouse cannot complete the test, and will drop from the bar onto the padded surface below. […] In FIG. 7 B, acetyl-leucine treatment of 0.1 g/kg body weight was provided from 3 weeks of age. The acetyl-leucine treated Sandhoff mice retained the ability to complete the test up to 13 weeks of age (inclusive). Data shown is the mean of 6 mice per group. […]

[8] = system: Npc1−/− mouse; assay: Lifespan and symptom onset of Npc1−/− mouse; format: in vivo
Source text: Separate groups of Npc1^−/− and Npc1^+/+ mice were left untreated, as controls.

[9] = system: amyloid precursor protein C-terminal fragments (APP-CTFs); assay: APP-CTF levels in cerebellum of NPC1−/− mice; format: in vivo, mouse; settings: 0.1 g/kg body weight daily from 3 weeks of age, sacrificed at 8 weeks
Experimental: (§1) The Niemann-Pick Disease Type C (NPC) mouse model shares a number of pathological features with Alzheimer's disease (AD) as described herein. […] Mice were sacrificed at 8 weeks of age. Levels of amyloid precursor protein C-terminal fragments (APP-CTFs) were evaluated relative to total amyloid precursor protein (APP) levels in the cerebellum for wild type, untreated wild type NPC1^−/− mice, and AL-treated wild type NPC1^−/− mice. Levels of microtubule-associated protein 1A/1B-light chain 3-phosphatidylethanolamine conjugate (LC3-II) were also evaluated relative to levels of tubulin loading control for wild type, untreated wild type NPC1^−/− mice, and AL-treated wild type NPC1^−/− mice.

[10] = system: AB variant of Tay-Sachs disease patient fibroblasts; assay: Glycosphingolipid (GSL) levels by HPLC, AB variant fibroblasts; format: cell-based, human; settings: 1 mM for 6 days
[11] = system: downbeat nystagmus patients; assay: Case studies, downbeat nystagmus patients; format: in vivo, human
Source text: The patient was diagnosed with downbeat nystagmus: the patient was severely impaired by blurred vision (oscillopsia) due to the nystagmus, and experienced difficulties while reading and writing. The patient's visual acuity was: right 0.75, left 0.67, binocular 0.83, and the downbeat nystagmus was documented by video-oculography. […] The patient could partially suppress the nystagmus by visual fixation, as evaluated using a target center (dot presented in the center of a display for 30 seconds, FIG. 13A) and in complete darkness using goggles covered with special glasses for 45 seconds (FIG. 13B). The results (median of slow phase velocity, SPV) were as follows: Target Center-horizontal: −0.02°/s, vertical: 2.41°/s; Complete Darkness-horizontal: 0.05°/s, vertical: 3.27°/s (FIG. 13C).

[12] = system: microtubule-associated protein 1A/1B-light chain 3-phosphatidylethanolamine conjugate (LC3-II); assay: LC3-II levels in NPC1−/− mice; format: in vivo, mouse; settings: 0.1 g/kg body weight daily from 3 weeks of age, sacrificed at 8 weeks
Experimental: as §1

[13] = downbeat nystagmus Patient 1, approximately 14 weeks after starting
[14] = downbeat nystagmus Patient 2, on treatment, Complete Darkness
[15] = downbeat nystagmus Patient 2, on treatment, Target Center

Which results are given for `CC(=O)NC(CC(C)C)C(=O)O` (racemic) [acetyl-DL-leucine]?
LysoTracker fluorescence relative to untreated disease fibroblasts [1]: trend in reducing LysoTracker fluorescence; PET study in patients with ataxia ([2]; Becker-Bense et al. (2015)): increased metabolism in the midbrain and lower brainstem in responders; Cerebellar ataxia, another case series ([2]; Pelz et al. (2015)): did not find benefit; Quantitative gait analysis ([2]; Schniepp et al. (2015)): improved temporal gait variability; Cerebellar ataxia, case series ([2]; Strupp et al. (2013)): symptomatic improvement of cerebellar ataxia; LysoTracker fluorescence relative to untreated disease fibroblasts [3]: statistically significant reduction in LysoTracker fluorescence; Symptoms after suspension of treatment ([4]; PSP Patient 1): symptoms worsened; Clinical observation ([4]; PSP Patient 1, 27 days of treatment): significant reduction of dizziness and slight improvement of gait; PSPRS Score ([4]; PSP Patient 1, re-examined about two months later): remained stable; Clinical observation ([4]; PSP Patient 2, 17 days of treatment, re-examined 4 days after stopping): no significant improvement of gait or hypokinetic rigid syndrome; Symptoms after stopping medication ([4]; PSP Patient 2): no deterioration of symptoms; Coefficient of variation (temporal) ([4]; PSP Patient 2, after 17 days of treatment, before 8.5): 6.6; Track width ([4]; PSP Patient 2, after 17 days of treatment, before 10.3): 9.3 cm; Functional Gait Assessment ([4]; PSP Patient 2, after 17 days of treatment, before 15/30): 15/30; Double stance ([4]; PSP Patient 2, after 17 days of treatment, before 34.5): 28.6%; speed ([4]; PSP Patient 2, after 17 days of treatment, before 51): 68 cm/s; Step cycle length ([4]; PSP Patient 2, after 17 days of treatment, before 66): 82 cm; cadence ([4]; PSP Patient 2, after 17 days of treatment, before 93): 99 steps/minute; Max. speed ([4]; PSP Patient 2, after 17 days of treatment, before 123): 98 cm/s; Clinical observation ([4]; PSP Patient 3, 17 days of treatment, re-examined 4 days after stopping): no significant improvement of gait or hypokinetic rigid syndrome; Symptoms after stopping medication ([4]; PSP Patient 3): no deterioration of symptoms; Coefficient of variation (temporal) ([4]; PSP Patient 3, after 17 days of treatment, before 3.6): 3.1; Track width ([4]; PSP Patient 3, after 17 days of treatment, before 15.5): 15.1 cm; Double stance ([4]; PSP Patient 3, after 17 days of treatment, before 25.8): 24.3%; Functional Gait Assessment ([4]; PSP Patient 3, after 17 days of treatment, before 28/30): 27/30; speed ([4]; PSP Patient 3, after 17 days of treatment, before 103): 120 cm/s; cadence ([4]; PSP Patient 3, after 17 days of treatment, before 106): 112 steps/minute; Step cycle length ([4]; PSP Patient 3, after 17 days of treatment, before 118): 129 cm; Max. speed ([4]; PSP Patient 3, after 17 days of treatment, before 163): 194 cm/s; Clinical observation ([4]; PSP Patient 4, after three weeks of treatment): gait with increased subjective security and with reduced frequency of falls; Functional Gait Assessment ([4]; PSP Patient 4, after 3 weeks of treatment): 14/30; Coefficient of variation (temporal) ([4]; PSP Patient 4, after 3 weeks of treatment, before 8.2): 6.8; Track width ([4]; PSP Patient 4, after 3 weeks of treatment, before 15.4): 13.6 cm; speed ([4]; PSP Patient 4, after 3 weeks of treatment, before 39): 65 cm/s; Step cycle length ([4]; PSP Patient 4, after 3 weeks of treatment, before 43): 63 cm; Double stance ([4]; PSP Patient 4, after 3 weeks of treatment, before 45.4): 36%; Max. speed ([4]; PSP Patient 4, after 3 weeks of treatment, before 70): 93 cm/s; cadence ([4]; PSP Patient 4, after 3 weeks of treatment, before 109): 125 steps/minute; Symptoms without medication ([4]; PSP Patient 4, after three months without medication): progression of hypokinetic-rigid syndrome; LysoTracker fluorescence relative to untreated disease fibroblasts [5]: statistically significant reduction in LysoTracker fluorescence; LysoTracker fluorescence relative to untreated disease fibroblasts [6]: trend in reducing LysoTracker fluorescence; Age up to which ability to complete the bar crossing test was retained ([7]; Sandhoff mice, untreated around 11 weeks): up to 13 weeks of age; Motor function in bar-crossing test ([7]; Sandhoff mouse model): improved motor function and hind-limb mobility/engagement; Delay of discernible indication of disease vs untreated Npc1−/− mice ([8]; Npc1−/− mice treated from weaning): two; Lifespan ([8]; Npc1−/− mouse, 0.1 g/kg from 3 weeks of age): statistically significant increase in lifespan; APP-CTF levels relative to total APP in the cerebellum [9]: lowering of APP-CTFs; GSL levels [10]: trend towards decreased GSL levels; Effect of temporary suspension of the medication ([11]; downbeat nystagmus Patient 1): considerable deterioration; Patient-reported benefit ([11]; downbeat nystagmus Patient 1, 5 gram per day, after 10 days): significant benefit; Nystagmus (clinical examination) [11, 13]: reduction of the nystagmus; Posturography [11, 13]: reduction of postural sway; Visual acuity, left ([11]; downbeat nystagmus Patient 1, approximately 14 weeks after starting, before 0.67): 1.0; Visual acuity, right ([11]; downbeat nystagmus Patient 1, approximately 14 weeks after starting, before 0.75): 0.83; Visual acuity, binocular ([11]; downbeat nystagmus Patient 1, approximately 14 weeks after starting, before 0.83): 1; Side-effects ([11]; downbeat nystagmus Patient 1, continued treatment at 5 gram per day): no side-effects; Clinical observation ([11]; downbeat nystagmus Patient 2, 5 g/day): improvement of gait; Median of slow phase velocity (SPV), horizontal [11, 14]: 0.05 °/s; Median of slow phase velocity (SPV), vertical [11, 14]: 3.27 °/s; Median of slow phase velocity (SPV), horizontal [11, 15]: −0.02 °/s; Median of slow phase velocity (SPV), vertical [11, 15]: 2.41 °/s; Maximal gait velocity ([11]; downbeat nystagmus Patient 2, on treatment, increase from 122): 155 cm/s; LC3-II levels relative to tubulin loading control [12]: lowering of LC3-II
